Experimental data: ChEMBL document CHEMBL1201862, “PubChem BioAssay data set” (2004)
Counter-ions that a name gives are not always drawn. The source made the active and inactive calls.

How the values were obtained:
[1] = viability inhibitors of stage V gametocytes – luminescence, dose response (AID 1117278); assay type: functional, cell-based;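 further: gametocytes exposed to compound for 24 hours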
[2] = viability loss in human Jurkat cells – cell-based, luminescence, cytotoxicity control for P. falciparum gametocyte viability project, dose response (AID 1117277); assay type: functional;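 further: potency reflects loss of cellular ATP meaning fewer viable cells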
[3] = molecular target: Glutathione-S-transferase (Schistosoma japonicum, UniProt Q26513); test: GST-antibody interaction or FRET quenching – biochemical, TR-FRET, artefact control for Vif-APOBEC3G degradation inhibitor project, dose response (AID 1117362); assay type: functional
Chain of Glutathione-S-transferase (Q26513 whole entry): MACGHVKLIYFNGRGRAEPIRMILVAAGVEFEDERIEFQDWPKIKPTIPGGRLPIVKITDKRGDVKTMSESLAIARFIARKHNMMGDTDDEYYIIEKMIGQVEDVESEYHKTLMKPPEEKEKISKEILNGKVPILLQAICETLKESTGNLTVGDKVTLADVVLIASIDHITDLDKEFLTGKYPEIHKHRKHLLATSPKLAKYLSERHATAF

[4] = system: Streptococcus sp. 'group A'; test: Streptococcus pyogenes SK(-)GAS viability under kanamycin – luminescence, BacTiterGlo, confirmation, counter-screen for streptokinase expression inhibitor project, dose response (AID 1900); assay type: functional, organism-based
[5] = molecular target: T1, Streptokinase A (Streptococcus pyogenes serotype M1, UniProt P10520); test: viability-normalized secreted streptokinase activity reduction – plasminogen activation absorbance, OD405, dose response (AID 1914); assay type: functional, Streptococcus pyogenes M1 GAS;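 further: secreted streptokinase activity via plasminogen activation per viability signal from cell pellet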
T1 sequence (P10520 whole entry): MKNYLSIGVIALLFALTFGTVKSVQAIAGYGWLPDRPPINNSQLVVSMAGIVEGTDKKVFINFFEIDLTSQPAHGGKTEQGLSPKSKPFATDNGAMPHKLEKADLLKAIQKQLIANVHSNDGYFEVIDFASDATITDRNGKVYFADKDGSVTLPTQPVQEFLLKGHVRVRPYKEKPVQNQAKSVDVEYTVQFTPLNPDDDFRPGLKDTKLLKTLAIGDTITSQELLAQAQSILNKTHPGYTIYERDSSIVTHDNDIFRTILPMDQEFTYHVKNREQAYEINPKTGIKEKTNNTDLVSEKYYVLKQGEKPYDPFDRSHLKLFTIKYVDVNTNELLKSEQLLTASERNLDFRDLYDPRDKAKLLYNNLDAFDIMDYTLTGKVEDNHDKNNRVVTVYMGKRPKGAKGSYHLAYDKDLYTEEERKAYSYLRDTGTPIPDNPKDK

[6] = viability of PTEN-deleted HCT116 cells – cell-based, HCT116 PTEN knockout, dose response (AID 1047); assay type: functional;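 further: HCT116 colon tumor cells with PTEN knocked out; cells exposed to compound for 60 hours before readout; potency for loss of cell viability measured by luminescence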
[7] = viability of HCT116 lacking mutant beta-catenin – cell-based, human colon tumor, dose response (AID 1045); assay type: functional;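 further: HCT116 colon tumor cells with beta catenin knocked out; cells exposed to compound for 60 hours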
[8] = system: Streptococcus; test: GAS UMAA2166 growth inhibition – luminescence, BacTiterGlo, counter-screen for streptokinase expression inhibitor project, dose response (AID 1915); assay type: functional, organism-based;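 further: potency for reduction of bacterial viability or growth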
[9] = THP-1 cell cytotoxicity, dose response, cytotoxicity control for non-replicating M. tuberculosis project (AID 489025); assay type: functional
[10] = HepG2 cell cytotoxicity, dose response, cytotoxicity control for non-replicating M. tuberculosis project (AID 489018); assay type: functional; conditions: Mycobacterium tuberculosis
[11] = Vero E6 cell cytotoxicity, dose response, cytotoxicity control for non-replicating M. tuberculosis project, secondary assay (AID 492998); assay type: functional, VeroE6; conditions: Vero C1008
[12] = molecular target: T2, Microphthalmia-associated transcription factor (Homo sapiens, UniProt O75030); test: reducers of TRPM1 reporter luminescence, concentration series – cell-based, SK-MEL-5, cherry-picked, set 3, MITF inhibitor project, dose response (AID 493073); assay type: functional;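 further: SK-MEL-5 melanoma cells with luciferase driven by the MITF target TRPM1 promoter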
T2 sequence (O75030 whole entry): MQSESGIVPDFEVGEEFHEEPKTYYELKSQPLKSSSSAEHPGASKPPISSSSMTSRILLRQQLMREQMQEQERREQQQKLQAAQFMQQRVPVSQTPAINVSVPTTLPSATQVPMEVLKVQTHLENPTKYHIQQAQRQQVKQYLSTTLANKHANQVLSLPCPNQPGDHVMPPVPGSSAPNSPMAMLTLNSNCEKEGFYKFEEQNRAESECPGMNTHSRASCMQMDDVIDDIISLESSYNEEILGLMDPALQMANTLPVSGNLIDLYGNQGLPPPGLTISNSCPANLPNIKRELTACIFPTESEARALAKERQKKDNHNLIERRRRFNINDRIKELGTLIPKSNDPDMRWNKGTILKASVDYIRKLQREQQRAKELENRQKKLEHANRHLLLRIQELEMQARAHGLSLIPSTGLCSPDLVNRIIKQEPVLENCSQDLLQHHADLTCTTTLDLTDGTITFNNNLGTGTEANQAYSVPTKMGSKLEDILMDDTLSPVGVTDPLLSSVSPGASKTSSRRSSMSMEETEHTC

[13] = cells; assay type: functional
[14] = system: INS1; test: INS-1E survival protection against cytokine death – cell-based, luminescence, retest, dose response (AID 449756); assay type: functional; conditions: Rattus norvegicus;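 further: cell death triggered by IL-1 beta plus TNF-alpha plus IFN-gamma mixture; protective hits raise ATP signal compared with cytokine alone wells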
[15] = inhibitors of TRPM1-promoter reporter in SK-MEL-5 – cell-based, luciferase, dry powder, set 9, MITF inhibitor project, dose response (AID 651588); assay type: functional
[16] = cytotoxicity in MITF-independent A375 cells – cell-based, CellTiter-Glo luminescence, dry powder, set 4, counter-screen for MITF inhibitor project, dose response (AID 624364); assay type: functional; conditions: A-375;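 further: A375 melanoma cells are MITF independent so this is a counter screen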
[17] = viability loss in MITF-independent A375 cells – cell-based, CellTiter-Glo luminescence, dry powder, set 7, counter-screen for MITF inhibitor project, dose response (AID 624490); assay type: functional; conditions: A-375
[18] = MITF Orthogonal Assay: MALME3 CTG Assay Measured in Cell-Based System Using Plate Reader - 2084-04_Inhibitor_Dose_DryPowder_Activity_Set6.; assay type: functional; conditions: MALME-3
[19] = growth inhibition of SK-MEL-5 melanoma cells – cell-based, CellTiter-Glo luminescence, dry powder, set 8, orthogonal assay for MITF inhibitor project, dose response (AID 651586); assay type: functional
[20] = growth inhibition of MALME3 cells – cell-based, CellTiter-Glo luminescence, dry powder, set 5, orthogonal assay for MITF inhibitor project, dose response (AID 651584); assay type: functional; conditions: MALME-3
[21] = cytotoxicity in melanoma parental cells – cell-based, CellTiter-Glo, dry powder, set 6, MITF inhibitor project, dose response (AID 624429); assay type: functional; conditions: SK-MEL-5
[22] = MITF Orthogonal Assay: SK-MEL-5 CTG Assay Measured in Cell-Based System Using Plate Reader - 2084-02_Inhibitor_Dose_DryPowder_Activity_Set5.; assay type: functional
[23] = viability loss in MITF-independent A375 cells – cell-based, CellTiter-Glo luminescence, dry powder, set 6, counter-screen for MITF inhibitor project, dose response (AID 624488); assay type: functional; conditions: A-375
[24] = cytotoxicity in MITF-independent A375 cells – cell-based, CellTiter-Glo luminescence, dry powder, set 9, counter-screen for MITF modulator project, dose response (AID 651591); assay type: functional; conditions: A-375
[25] = MITF Measured in Cell-Based System Using Plate Reader - 2084-01_Inhibitor_Dose_DryPowder_Activity_Set6.; assay type: functional
[26] = viability loss in MITF-independent A375 cells – cell-based, CellTiter-Glo luminescence, dry powder, set 2, counter-screen for MITF inhibitor project, dose response (AID 624489); assay type: functional; conditions: A-375;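 further: actives are compounds lowering A375 viability meaning general cytotoxicity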
[27] = MITF Measured in Cell-Based System Using Plate Reader - 2084-01_Inhibitor_Dose_DryPowder_Activity_Set7.; assay type: functional
[28] = Dd2 parasite growth inhibition in erythrocytes – SYBR Green, dry powder samples, set 9, dose response (AID 1159568); assay type: functional, cell-based
[29] = P. falciparum Dd2 growth inhibitors, dose response, SYBR Green, cherry-picked samples (AID 1159567); assay type: functional, cell-based
[30] = molecular target: G-protein coupled receptor 183 (Homo sapiens, UniProt P32249); test: SAR confirmation of small molecule antagonists of the EBI2 receptor via a luminescent beta-arrestin assa.; assay type: functional
Chain of G-protein coupled receptor 183 (P32249 whole entry): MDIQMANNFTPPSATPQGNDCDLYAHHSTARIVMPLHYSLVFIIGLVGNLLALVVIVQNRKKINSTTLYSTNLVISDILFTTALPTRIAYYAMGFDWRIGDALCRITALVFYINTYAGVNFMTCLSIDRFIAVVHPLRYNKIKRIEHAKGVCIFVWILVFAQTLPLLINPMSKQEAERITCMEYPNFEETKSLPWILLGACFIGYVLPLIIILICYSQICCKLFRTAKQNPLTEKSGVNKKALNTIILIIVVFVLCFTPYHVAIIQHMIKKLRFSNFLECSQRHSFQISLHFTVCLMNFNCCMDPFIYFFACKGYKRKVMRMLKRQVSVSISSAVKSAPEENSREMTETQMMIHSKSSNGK

[31] = molecular target: Metabotropic glutamate receptor 7 (Homo sapiens, UniProt Q14831); test: potentiation of glutamate EC20 at mGlu7 – cell-based, calcium mobilization, Galpha15, dose response (AID 743384); assay type: functional
Chain of Metabotropic glutamate receptor 7 (Q14831 whole entry): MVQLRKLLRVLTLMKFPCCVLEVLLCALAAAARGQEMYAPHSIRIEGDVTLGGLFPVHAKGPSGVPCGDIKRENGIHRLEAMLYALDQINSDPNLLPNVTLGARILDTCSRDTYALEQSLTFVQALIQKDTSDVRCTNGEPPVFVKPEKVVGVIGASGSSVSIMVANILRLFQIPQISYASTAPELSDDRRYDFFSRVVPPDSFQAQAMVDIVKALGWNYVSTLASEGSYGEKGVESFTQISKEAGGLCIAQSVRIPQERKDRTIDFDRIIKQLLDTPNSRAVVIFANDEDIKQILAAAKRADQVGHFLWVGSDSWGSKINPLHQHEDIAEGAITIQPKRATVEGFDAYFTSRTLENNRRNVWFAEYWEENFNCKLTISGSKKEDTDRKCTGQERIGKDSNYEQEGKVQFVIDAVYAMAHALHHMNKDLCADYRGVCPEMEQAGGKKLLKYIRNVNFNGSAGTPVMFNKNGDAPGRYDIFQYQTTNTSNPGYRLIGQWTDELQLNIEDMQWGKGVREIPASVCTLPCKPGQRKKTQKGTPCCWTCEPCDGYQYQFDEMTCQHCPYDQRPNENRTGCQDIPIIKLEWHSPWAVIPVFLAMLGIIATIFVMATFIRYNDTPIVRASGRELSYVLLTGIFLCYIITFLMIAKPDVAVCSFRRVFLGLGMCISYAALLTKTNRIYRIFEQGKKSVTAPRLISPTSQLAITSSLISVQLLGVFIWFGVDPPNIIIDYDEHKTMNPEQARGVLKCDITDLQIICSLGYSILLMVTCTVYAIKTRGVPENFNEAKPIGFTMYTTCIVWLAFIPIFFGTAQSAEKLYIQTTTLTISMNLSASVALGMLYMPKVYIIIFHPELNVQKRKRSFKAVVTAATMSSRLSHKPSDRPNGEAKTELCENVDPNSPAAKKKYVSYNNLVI

[32] = IC50 of insulin release inhibition, rat insulinoma INS-1E line, 5 mM glucose, cell-based (AID 1117331); assay type: functional
[33] = cells; assay type: functional, cell-based; conditions: INS-1E

Question: Which IC50 [1] does the source give for CN(C)S(=O)(=O)N1CCC(Oc2ccc(C(=O)NCc3cnn(C)c3)cc2)CC1 here?
Answer: Its IC50 is > 109 µM (inactive).

Question: What about the IC50 [2] of the same molecule?
Answer: The IC50 was > 83.3 µM (inactive).

Question: For O=[N+]([O-])c1ccc(-c2ccc(/C=N/c3c(-c4ccco4)nc4ccccn34)o2)cc1, which IC50 [3] is on record?
Answer: The IC50 was 50.3 µM (active).

Question: Which EC50 [4] does the source give for Cc1nc2ccccc2n1/N=C/c1ccc([N+](=O)[O-])s1 here?
Answer: The EC50 was 3.63 µM (active).

Question: And the EC50 [5]?
Answer: The EC50 was > 150 µM (not active).

Question: And the EC50 [6]?
Answer: The EC50 was 3.72 µM (active).

Question: And the EC50 [7]?
Answer: Its EC50 is 2.47 µM (active).

Question: And the EC50 [8]?
Answer: Its EC50 is 10.7 µM (active).

Question: And the CC50 [9]?
Answer: Its CC50 is 5.13 µM (active).

Question: And the CC50 [10]?
Answer: Its CC50 is 12.4 µM (active).

Question: What about the CC50 [11] of the same molecule?
Answer: The CC50 was 9.87 µM (active).

Question: What about the AC50 [12] of the same molecule?
Answer: The AC50 was 3.51 µM (active).

Question: What about the IC50 [13] of the same molecule?
Answer: The IC50 was 0.43 µM (active).

Question: What about the AC50 [14] of the same molecule?
Answer: The AC50 was 2.01 µM (active).

Question: And the AC50 [15]?
Answer: The AC50 was 7.21 µM (active).

Question: And the AC50 [16]?
Answer: The AC50 was > 70 µM (inactive).

Question: And the AC50 [17]?
Answer: Its AC50 is > 70 µM (inactive).

Question: And the AC50 [18]?
Answer: Its AC50 is 22.9 µM (active).

Question: And the AC50 [19]?
Answer: Its AC50 is > 70 µM (inactive).

Question: What about the AC50 [20] of the same molecule?
Answer: The AC50 was 22.9 µM (active).

Question: What about the AC50 [21] of the same molecule?
Answer: Its AC50 is 10.7 µM (active).

Question: What about the AC50 [22] of the same molecule?
Answer: The AC50 was 6.24 µM (active).

Question: And the AC50 [23]?
Answer: Its AC50 is 47.3 µM (active).

Question: What about the AC50 [24] of the same molecule?
Answer: The AC50 was > 70 µM (inactive).

Question: What about the AC50 [25] of the same molecule?
Answer: The AC50 was 2.52 µM (active).

Question: And the AC50 [26]?
Answer: The AC50 was > 70 µM (inactive).

Question: What about the AC50 [27] of the same molecule?
Answer: The AC50 was 1.1 µM (active).

Question: Which results are given for CN1C(=O)c2cc(NC(=O)c3cccc(F)c3)ccc2OC[C@H]2O[C@H](CC(=O)NCC3CCCCC3)CC[C@H]21?
Answer: AC50 [28]: 8.12 µM (active); AC50 [29]: 8.99 µM (active)

Question: With CCN1CCN(C(=O)/C=C/c2ccc(Br)cc2)CC1 as the molecule, how does the IC50 [30] read?
Answer: Its IC50 is 0.0158 µM (active).

Question: Which EC50 [31] does the source give for CCOc1ccc(-n2c(C)cc(C(=O)CSCc3cccc(C)c3)c2C)cc1 here?
Answer: The EC50 was 10 µM (active).

Question: Which IC50 [32] does the source give for CCN(CC)CCCN(c1ccccc1)C1Cc2ccccc2C1 [APRINDINE HYDROCHLORIDE] here?
Answer: The IC50 was 7.13 µM (inactive).

Question: And the IC50 [33]?
Answer: The IC50 was > 33.3 µM (inactive).
